Source: patent publication US10195297B2, “Iron garnet nanoparticles for cancer radiotherapy and chemotherapy” (priority 2014, dated 2019)

Assays:
human NSCLC A549 cells [1] = test: MTS cytotoxicity studies of 166HoIG, 166HoIG-Pt and free Pt drugs (Example 6); assay type: cell-based; conditions: 24 h
Protocol: Cytotoxicity studies. The studies involving human NSCLC A549 cells were carried out under standard conditions in a humidified, 37° C., 5% CO2 atmosphere incubator. The culture medium used for A549 was Roswell Park Memorial Institute with 10% fetal calf serum (FCS), 100 μg/mL streptomycin, 100 IU/mL penicillin and 2.0 mM L-glutamine (RPMI).
Suspensions of each type of neutron-activated nanoparticle were prepared in RPMI. Two control groups, RPMI alone and RPMI with cells not exposed to ^166Ho nanoparticles, were included in each 96-well plate. At least four replicates were done for each concentration and each control group. The cells were seeded at 5×10^4 cells/mL (100 μL/well) in 96-well plates and allowed to grow for 24 h after which time the RPMI was removed and replaced with 100 μL of RPMI that contained blank ^166HoIG or ^166HoIG-Pt. After an exposure time of 24 h on a microplate shaker in the incubator, the RPMI was removed and replaced with 100 μL of fresh RPMI. […] After 1 h incubation with the MTS solution, the absorbance was read at 490 nm using a Synergy™ H1 hybrid multi-mode microplate reader. The percent survival of cells treated by each concentration of nanoparticles was calculated using the following equation:
[formula] where Ad is the absorbance of cells treated with nanoparticles, Am is the absorbance of medium alone and Ac is the absorbance of cells without treatment.

human NSCLC A549 cells [2] = test: MTS cytotoxicity of neutron-activated nanoparticles and free Pt drugs (Example 2); assay type: cell-based; conditions: 24 h
Protocol: The radioactivity of nanoparticles prior to administration to cells was determined using a 2470 WIZARD 2 automatic gamma counter. Studies involving human NSCLC A549 cells were carried out under standard conditions in a humidified, 37° C., 5% CO2 atmosphere incubator. The culture medium used for A549 cells was minimum essential medium to which had been added 10% fetal calf serum, 100 μg/mL streptomycin, 100 IU/mL penicillin and 2.0 mM L-glutamine. Cells were seeded at 5×10^4 cells/ml (100 μL/well) in 96-well plates and allowed to grow for 24 h after which time the medium was removed and replaced with medium and drug. After an exposure time of 24 h, the medium with drug was removed and replaced with 100 μL of fresh medium. To each well, 20 μL of CellTiter 96® AQueous One Solution Cell Proliferation Assay (MTS) solution was added. After 2 h incubation with the MTS solution, the absorbance was read at 490 nm using a Synergy™ H1 hybrid multi-mode microplate reader. The percent survival of cells treated by each concentration of drug was calculated using the following equation:
[formula] where Ad is the absorbance of cells treated with drug, Am is the absorbance of medium alone and Ac is the absorbance of cells without treatment. The % survival data was fit to exponential regression and IC50 values calculated.

| Compound | synergy with radiation (human NSCLC A549 cells [1]) | synergy with the radioactive Ho (human NSCLC A549 cells [2]) |
| --- | --- | --- |
| N.N.O=C([O-])C1(C(=O)[O-])CCC1.[Pt+2] [Free carboplatin, carboplatin] | did not act synergistically with radiation | – |
| N.N.[Cl][Pt][Cl] [cis, cisplatin] | – | act synergistically |
